Like-named read-outs stand apart in the source and are kept apart here. Non-standard residues stand in square brackets, D forms with d. Residues, ends and D or L forms follow the SMILES beside them. No end group written: not given here. Nle = CCCC[C@H](N)C(=O)O
Columns and labels:
human MRGPRX1 receptor = human MRGPRX1 receptor (Homo sapiens, UniProt Q96LB2); assay: DiscoverX calcium mobilization cell culture assay, agonist mode (FLIPR Tetra); type: cell-based; settings: Table 2 initial screening data, agonist format, peptides
Chain of human MRGPRX1 receptor (Q96LB2 whole entry): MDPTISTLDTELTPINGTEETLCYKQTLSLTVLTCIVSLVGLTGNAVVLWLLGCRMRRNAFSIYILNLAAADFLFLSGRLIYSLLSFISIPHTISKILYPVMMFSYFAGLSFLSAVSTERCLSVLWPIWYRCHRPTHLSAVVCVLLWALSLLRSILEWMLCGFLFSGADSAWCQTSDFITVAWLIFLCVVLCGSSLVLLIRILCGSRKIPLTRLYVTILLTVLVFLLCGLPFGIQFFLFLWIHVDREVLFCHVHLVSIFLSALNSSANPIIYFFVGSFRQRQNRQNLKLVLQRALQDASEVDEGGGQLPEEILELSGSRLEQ
Experimental: DiscoverX® Calcium cell line overexpressing naturally Gq coupled, wildtype human MRGPRX1 receptor was used to detect calcium mobilization in response to agonist stimulation of the receptor. Cells were plated in a 384-well plate and incubated overnight at 37° C. and 5% CO2 to allow the cells to attach and grow. Culture media was removed and replaced with dye loading buffer from the Calcium No WashPLUS detection kit according to the recommended protocol. Cells were incubated with peptides to induce response and calcium mobilization was detected using a FLIPR® Tetra (Molecular Devices, Inc.).
Compound activity was analyzed using Chemical and Biological Information System (CBIS) data analysis suite (ChemInnovation, CA). For agonist mode assays, percentage activity is calculated using the following formula: % Activity=100%×(mean RFU of test sample−mean RFU of vehicle control)/(mean MAX RFU control ligand−mean RFU of vehicle control). […] RFU means relative fluorescence units.

mechanical allodynia [1] = settings: rat, spinal nerve ligation, intrathecal; cited from earlier work
mechanical allodynia [2] = settings: mouse, chronic constriction injury, intrathecal; cited from earlier work

Row | Compound | EC50 (human MRGPRX1 receptor) | baseline nociception (mechanical allodynia [1]) | mechanical allodynia (mechanical allodynia [1]) | baseline nociception (mechanical allodynia [2]) | mechanical allodynia (mechanical allodynia [2])
1 | VGRPEWWMDSQKRYG [OK-202, VGRPEWWMDSQKRYG (SEQ ID NO: 54)] | 1580 nM |  |  |  | 
2 | CCCC[C@H](NC(=O)[C@H](Cc1c[nH]c2ccccc12)NC(=O)[C@H](Cc1c[nH]c2ccccc12)NC(=O)[C@H](CCC(=O)O)NC(=O)[C@@H]1CCCN1C(=O)[C@H](CCCNC(=N)N)NC(=O)CNC(=O)[C@@H](N)C(C)C)C(=O)N[C@@H](CC(=O)O)C(=O)N[C@@H](Cc1ccc(O)cc1)C(=O)N[C@@H](CCC(N)=O)C(=O)N[C@@H](CCCCN)C(=O)N[C@@H](CCCNC(=N)N)C(=O)N[C@@H](Cc1ccc(O)cc1)C(=O)NCC(=O)O [OK-205, VGRPEWW-Nle-DYQKRYG (SEQ ID NO: 22)] (H-VGRPEWW[Nle]DYQKRYG-OH; N-terminus and C-terminus assumed) | 11.1 nM |  |  |  | 

More lines, in order of falling EC50 (human MRGPRX1 receptor), values ahead:

Row | EC50 (human MRGPRX1 receptor) | Compound | baseline nociception (mechanical allodynia [1]) | mechanical allodynia (mechanical allodynia [1]) | baseline nociception (mechanical allodynia [2]) | mechanical allodynia (mechanical allodynia [2])
3 | 1.33 nM | VGRPEWWMDYQKRYG [BAM-8-22, VGRPEWWMDYQKRYG (SEQ ID NO: 21)] | did not affect baseline nociception | attenuates mechanical allodynia | did not affect baseline nociception | attenuates mechanical allodynia
4 | 1.02 nM | CSCC[C@H](NC(=O)[C@H](Cc1c[nH]c2ccccc12)NC(=O)[C@H](Cc1c[nH]c2ccccc12)NC(=O)[C@H](CCC(=O)O)NC(=O)[C@@H]1CCCN1C(=O)[C@H](CCCNC(=N)N)NC(=O)CNC(=O)[C@H](N)C(C)C)C(=O)N[C@@H](CC(=O)O)C(=O)N[C@@H](Cc1ccc(O)cc1)C(=O)N[C@@H](CCC(N)=O)C(=O)N[C@@H](CCCCN)C(=O)N[C@@H](CCCNC(=N)N)C(=O)N[C@@H](Cc1ccc(O)cc1)C(=O)NCC(=O)O [OK-206, dV-GRPEWWMDYQKRY-dG (SEQ ID NO: 23)] (H-[dV]GRPEWWMDYQKRYG-OH; N-terminus and C-terminus assumed) |  |  |  | 
5 | 0.67 nM | GRPEWWMDYQKRY [OK-203, GRPEWWMDYQKRY (SEQ ID NO: 3)] |  |  |  | 

Reference: patent publication US20220281915A1, “COMPOSITIONS COMPRISING BOVINE ADRENAL MEDULLA 8-22 (BAM8-22) PEPTIDE ANALOGS AND METHODS OF USE” (OKYO Pharma Limited, priority 2019, published 2022)
